The source of these data is publication PMC9266750, “Catalase Inhibition by Aminoalkanol Derivatives with Potential Anti-Cancer Activity—In Vitro and In Silico Studies Using Capillary Electrophoresis Method” (International Journal of Molecular Sciences, 2022).

Read-outs that look alike come from different tables or passages of the source.

The subject of one assay is alkaline phosphatase. The conditions noted are these: cited from earlier work.
Assay [1] concerns the target T1, Catalase from human erythrocytes (EC 1.11.1.6, CAT) (Homo sapiens, UniProt P04040).
T1 construct: Catalase from human erythrocytes (EC 1.11.1.6, CAT); purchased Sigma–Aldrich (Poznań, Poland); host or cells: human erythrocytes (natural source)
T1 sequence (P04040 2-527 limits assumed): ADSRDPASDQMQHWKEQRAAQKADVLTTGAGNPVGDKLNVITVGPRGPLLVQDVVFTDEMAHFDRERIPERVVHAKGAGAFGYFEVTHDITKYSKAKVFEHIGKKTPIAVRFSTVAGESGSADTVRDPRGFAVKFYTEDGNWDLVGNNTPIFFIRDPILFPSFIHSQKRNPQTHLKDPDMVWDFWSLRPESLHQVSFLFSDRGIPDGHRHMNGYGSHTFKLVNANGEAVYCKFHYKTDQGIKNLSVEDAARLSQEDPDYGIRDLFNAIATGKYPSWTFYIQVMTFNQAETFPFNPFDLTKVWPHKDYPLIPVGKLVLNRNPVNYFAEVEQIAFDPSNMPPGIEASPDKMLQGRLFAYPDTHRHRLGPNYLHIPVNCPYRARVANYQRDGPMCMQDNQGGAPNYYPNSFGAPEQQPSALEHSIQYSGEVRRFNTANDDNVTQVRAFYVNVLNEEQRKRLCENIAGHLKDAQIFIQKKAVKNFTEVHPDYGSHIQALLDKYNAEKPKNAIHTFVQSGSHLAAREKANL
In words: Catalase (CAT) inhibition kinetics by capillary electrophoresis (hydrogen peroxide/guaiacol/tetraguaiacol). The conditions noted are these: for Type of inhibition: from Km and Vmax versus control system; for IC50: from activity (%) versus inhibitor concentration plots, one value per compound; for Slope (slope angle of Lineweaver–Burk line): n = 6; for tetraguaiacol (TGCOL) concentration in the presence of inhibitor / guaiacol (GCOL) concentration in the presence of inhibitor: hydrogen peroxide 10 mM, 20.00 mM GCOL; for tetraguaiacol (TGCOL) concentration in the presence of inhibitor: without inhibitors 0.00 mM; for guaiacol (GCOL) concentration in the presence of inhibitor: without inhibitors 20.00 mM. The assay is classed as biochemical. From the text:
In this study, we used the capillary electrophoresis (CE) method developed by us to determine the tetraguaiacol complex as a product of the catalase-catalyzed reaction (CAT) (Table 1) in the presence of the enzyme, hydrogen peroxide (HPER) (as a substrate), guaiacol (GCOL) and inhibitors (I), (II), (III) and (IV) (Figure 2). Based on this method, we investigated changes in the concentration of guaiacol reacting with changes in the concentration of hydrogen peroxide depending on the activity of catalase and changes in the concentrations of the formed tetraguaiacol as the final reaction product. The developed CE technique made it possible to measure all the parameters thanks to the possibility of using three wavelengths simultaneously in one analysis. Investigations of kinetic parameters were based on mutual measurements of concentration changes between guaiacol (as the second reactant reacting with hydrogen peroxide) and tetraguaiacol as the final reaction product.
For the development of this method, we optimized the buffer pH, separating background electrolyte (BGE) concentration, wavelength, temperature, and voltage in accordance with the earlier procedure. […]. All these separation systems were tested to achieve the best separation parameters, resolution, and analysis time for all components in the reaction mixture. The best separation of tetraguaiacol, guaiacol, catalase (CAT) and compounds (I), (II), (III), (IV) was obtained with 100 mM phosphate buffer (pH 7.5). The measurements were taken at 214, 274 and 470 nm with a fused-silica capillary (effective length: 20 cm, diameter: 50 μm). The capillary temperature was 25 °C, which allowed the best resolution to be achieved. Separation was carried out at 20 kV. Each sample was added to the capillary under hydrodynamic injection. Average detection times for guaiacol (GCOL), compounds (I), (II), (III), (IV), tetraguaiacol (TGCOL) and CAT were […], respectively (Figure 2). […]. […]
Electrophoretic separations of catalase (CAT), hydrogen peroxide, guaiacol (GCOL) tetra guaiacol (TGCOL), and inhibitors (I), (II), (III) and (IV) of catalase, by CE was performed using 100 mM (NaH2PO4) phosphate buffer as a background electrolyte (BGE) adjusted with 100 mM sodium hydroxide to the pH = 7.5. The samples were injected under 5 psi pressure for 3 s. The experiments were performed under constant current conditions (97 μA). The separation temperature was 25 °C, and the detection wavelengths were set at 214, 274 and 470 nm. Before the assay, the capillary was conditioned according to the previously described procedure.
Sample mixtures containing catalase (CAT), hydrogen peroxide (HPER), guaiacol (GCOL), tetra guaiacol (TGCOL), and inhibitors (I), (II), (III) and (IV) were introduced automatically by pressure injection (with 5 psi pressure for 3 s on the sample solution). At the day’s end, vials with anode and a cathode buffer were emptied and a running buffer was filled again at the start of the next day before the analysis. The detector wavelength was fixed at 470 nm. Hydrogen peroxide was not detected at wavelength of 470 nm. The appropriate parameters for analyzing CAT, TGCOL and (I), (II), (III) and (IV) inhibitors were as follows: phosphate buffer (pH = 7.5) of 100 mM concentration, 25 °C temperature, and 20 kV voltage.
The CAT in the amount of 10 μg was dissolved in the 10 mL 100 mM phosphate buffer, pH 7.5 and divided into several portions, which were stored at −20 °C. One aliquot was thawed each day and the CAT activity was checked. For kinetic studies a catalase solution with a final concentration of 1 µg/mL was prepared. The working solutions of GCOL, TGCOL and HPER in appropriate concentrations were prepared immediately before use by dilution with the phosphate buffer according to the previously described procedure. […]

For another assay, the system named is acetylcholinesterase. The conditions noted are these: cited from earlier work.
The next assay deals with acid phosphatase. Further details: method as in PMID 34769193. The conditions noted are these: cited from earlier work.
The next assay relates to CAT. The conditions noted are these: cited from earlier work.
The mark [2] stands for this setting: inhibitor 2.50 mM, without inhibitor 1.26 ± 0.02.
Where [3] appears, read: inhibitor 2.50 mM, without inhibitor 23.31 ± 0.04.

`CN(C)CC(O)CN1C(=O)C2C(C1=O)C1(C)C(=O)C2(C)C(c2ccccc2)=C1c1ccccc1` (stereo not shown) [Compound (IV)]: the “inhibition of enzymatic activity” value in the assay with alkaline phosphatase, in the assay on acetylcholinesterase and in the assay with acid phosphatase was “inhibited” in each case. Moreover, the Type of inhibition result in assay [1] is recorded as “Competitive”. The same molecule gave a half-inhibitory concentration (IC50) in assay [1] of 12.2 ± 0.06 mM. Besides, the maximal velocity (Vmax) in assay [1] (setting [2]) was 1.25 ± 0.03 mM/min; in assay [1] (inhibitor 5.00 mM), 1.24 ± 0.06 mM/min; in assay [1] (inhibitor 10.00 mM), 1.24 ± 0.06 mM/min; in assay [1] (inhibitor 15.00 mM) it was 1.23 ± 0.05 mM/min; in assay [1] (inhibitor 20.00 mM), 1.26 ± 0.02 mM/min. In addition, the “Slope (slope angle of Lineweaver–Burk line)” value (“Slope” for short) was determined as 24.33 ± 0.06 in assay [1] (setting [3]); 25.00 ± 0.05 in assay [1] (inhibitor 5.00 mM); 26.24 ± 0.04 in assay [1] (inhibitor 10.00 mM); 27.30 ± 0.05 in assay [1] (inhibitor 15.00 mM); 29.27 ± 0.03 in assay [1] (inhibitor 20.00 mM). Moreover, the “tetraguaiacol (TGCOL) concentration in the presence of inhibitor” value (shortened to “tetraguaiacol … of inhibitor”) in assay [1] (inhibitor 20.00 mM) is listed as 4.39 mM. Moreover, the “guaiacol (GCOL) concentration in the presence of inhibitor” value in assay [1] (inhibitor 20.00 mM) is 15.61 mM.

As for `CCC12C(=O)C(CC)(C(c3ccccc3)=C1c1ccccc1)C1C(=O)N(CC(O)CN(C)C)C(=O)C12` (stereo not shown) [Compound (II)], the “inhibition of enzymatic activity” value with alkaline phosphatase, in the assay with acetylcholinesterase and with acid phosphatase was “inhibited” in each case. For the same molecule, the Type of inhibition entry in assay [1] was “Competitive”. The molecule further yielded a concentration for half-maximal inhibition (IC50) in assay [1] of 12.8 ± 0.07 mM. Besides, the maximal velocity (Vmax) in assay [1] (setting [2]) was found to be 1.24 ± 0.06 mM/min; in assay [1] (inhibitor 5.00 mM), 1.24 ± 0.06 mM/min; in assay [1] (inhibitor 10.00 mM), 1.26 ± 0.03 mM/min; in assay [1] (inhibitor 15.00 mM), 1.25 ± 0.04 mM/min; in assay [1] (inhibitor 20.00 mM) it was 1.24 ± 0.04 mM/min. The “Slope” value in assay [1] (setting [3]) was determined as 23.70 ± 0.05; in assay [1] (inhibitor 5.00 mM), 24.24 ± 0.05; in assay [1] (inhibitor 10.00 mM) it was 25.30 ± 0.06; in assay [1] (inhibitor 15.00 mM), 26.00 ± 0.04; in assay [1] (inhibitor 20.00 mM), 27.06 ± 0.05. In addition, the “tetraguaiacol … of inhibitor” value in assay [1] (inhibitor 20.00 mM) is on record as 2.44 mM. The “guaiacol (GCOL) concentration in the presence of inhibitor” value in assay [1] (inhibitor 20.00 mM) turned out to be 17.56 mM.

Turning to `[N-]=[N+]=[N-]` [sodium azide], in the assay with CAT, the IC50 was 25 µM.

`CCC12C(=O)C(CC)(C(c3ccccc3)=C1c1ccccc1)C1C(=O)N(CC(O)CNC(C)C)C(=O)C12` (stereo not shown) [Compound (I)]: the “inhibition of enzymatic activity” value in the assay on alkaline phosphatase, with acetylcholinesterase and in the assay with acid phosphatase was “inhibited” throughout. The Type of inhibition entry in assay [1] is on record as “Competitive”. This molecule came in with an IC50 in assay [1] of 11.4 ± 0.05 mM. In addition, the Vmax in assay [1] (setting [2]) came to 1.25 ± 0.04 mM/min; in assay [1] (inhibitor 5.00 mM), 1.24 ± 0.07 mM/min; in assay [1] (inhibitor 10.00 mM), 1.25 ± 0.05 mM/min; in assay [1] (inhibitor 15.00 mM), 1.24 ± 0.07 mM/min; in assay [1] (inhibitor 20.00 mM), 1.25 ± 0.05 mM/min. The “Slope” value in assay [1] (setting [3]) was 24.72 ± 0.05; in assay [1] (inhibitor 5.00 mM), 25.43 ± 0.05; in assay [1] (inhibitor 10.00 mM), 27.33 ± 0.06; in assay [1] (inhibitor 15.00 mM), 28.62 ± 0.06; in assay [1] (inhibitor 20.00 mM), 30.75 ± 0.04. Also, the “tetraguaiacol … of inhibitor” value in assay [1] (inhibitor 20.00 mM) is 5.86 mM. The “guaiacol (GCOL) concentration in the presence of inhibitor” value in assay [1] (inhibitor 20.00 mM) was determined as 14.14 mM.

Consider `CC(C)NCC(O)CN1C(=O)C2C(C1=O)C1(C)C(=O)C2(C)C(c2ccccc2)=C1c1ccccc1` (stereo not shown) [Compound (III)], for which the “inhibition of enzymatic activity” value in the assay with alkaline phosphatase, in the assay on acetylcholinesterase and with acid phosphatase was “inhibited” in each case. Also, the Type of inhibition result in assay [1] is recorded as “Competitive”. In addition, the half-maximal inhibitory concentration (IC50) in assay [1] was found to be 10.3 ± 0.03 mM. Besides, the Vmax in assay [1] (setting [2]) was determined as 1.24 ± 0.07 mM/min; in assay [1] (inhibitor 5.00 mM), 1.25 ± 0.08 mM/min; in assay [1] (inhibitor 10.00 mM) it was 1.24 ± 0.07 mM/min; in assay [1] (inhibitor 15.00 mM), 1.24 ± 0.09 mM/min; in assay [1] (inhibitor 20.00 mM), 1.25 ± 0.02 mM/min. For the same molecule, the “Slope” value in assay [1] (setting [3]) turned out to be 25.09 ± 0.04; in assay [1] (inhibitor 5.00 mM) it was 25.84 ± 0.05; in assay [1] (inhibitor 10.00 mM), 28.60 ± 0.04; in assay [1] (inhibitor 20.00 mM), 32.68 ± 0.02. Besides, the “tetraguaiacol … of inhibitor” value in assay [1] (inhibitor 20.00 mM) turned out to be 8.29 mM. In addition, the “guaiacol (GCOL) concentration in the presence of inhibitor” value in assay [1] (inhibitor 20.00 mM) was 11.71 mM.

Consider `NO` [hydroxylamine], for which the half-inhibitory concentration (IC50) in the assay on CAT was 20 µM.

`Nc1nc[nH]n1` [3-Amino-1,2,4-triazole]: the IC50 in the assay on CAT (specific catalase inhibitor) was 6000 µM.

Broadly, the IC50 is the concentration that gives 50% inhibition. Usually Vmax stands for the top rate of the reaction or transport when substrate is in excess.
